Measured values: ChEMBL document CHEMBL4308841, “Synthesis, in vitro antiproliferative activity, and kinase inhibitory effects of pyrazole-containing diarylureas and diarylamides” (Eur J Med Chem, 2018)

Key:
[1] = test system: DU-145; assay: Growth inhibition of human DU145 cells incubated for 48 hrs by sulforhodamine B assay; format: functional, cell-based; details: DU-145, 48 h
[2] = test system: NCI/ADR-RES; assay: Growth inhibition of human NCI/ADR-RES cells assessed as cell growth at 10 uM incubated for 48 hrs by sulforhodamine B assay relative to control; format: functional; details: read-out: Activity
[3] = test system: OVCAR-8; assay: Growth inhibition of human OVCAR8 cells assessed as cell growth at 10 uM incubated for 48 hrs by sulforhodamine B assay relative to control; format: functional; details: OVCAR-8, 48 h, read-out: Activity
[4] = test system: OVCAR-4; assay: Growth inhibition of human OVCAR4 cells assessed as cell growth at 10 uM incubated for 48 hrs by sulforhodamine B assay relative to control; format: functional; details: OVCAR-4, 48 h, read-out: Activity
[5] = test system: A549; assay: Growth inhibition of human A549/ATCC cells assessed as cell growth at 100 uM incubated for 48 hrs by sulforhodamine B assay relative to control; format: functional; details: A549, 48 h, read-out: Activity
[6] = test system: SW-620; assay: Growth inhibition of human SW620 cells assessed as cell growth at 10 uM incubated for 48 hrs by sulforhodamine B assay relative to control; format: functional; details: SW-620, 48 h, read-out: Activity
[7] = test system: LOX IMVI; assay: Growth inhibition of human LOXIMVI cells assessed as cell growth at 100 uM incubated for 48 hrs by sulforhodamine B assay relative to control; format: functional; details: read-out: Activity
[8] = test system: T47D; assay: Growth inhibition of human T47D cells incubated for 48 hrs by sulforhodamine B assay; format: functional, cell-based
[9] = test system: HOP-62; assay: Growth inhibition of human HOP62 cells assessed as cell growth at 10 uM incubated for 48 hrs by sulforhodamine B assay relative to control; format: functional; details: HOP-62, 48 h, read-out: Activity
[10] = test system: SF-268; assay: Growth inhibition of human SF268 cells assessed as cell growth at 10 uM incubated for 48 hrs by sulforhodamine B assay relative to control; format: functional; details: SF-268, 48 h, read-out: Activity
[11] = test system: DU-145; assay: Growth inhibition of human DU145 cells assessed as cell growth at 100 uM incubated for 48 hrs by sulforhodamine B assay relative to control; format: functional; details: DU-145, 48 h, read-out: Activity
[12] = test system: CCRF-CEM; assay: Growth inhibition of human CCRF-CEM cells assessed as cell growth at 0.1 uM incubated for 48 hrs by sulforhodamine B assay relative to control; format: functional; details: read-out: Activity
[13] = test system: OVCAR-3; assay: Growth inhibition of human OVCAR3 cells assessed as cell growth at 0.01 uM incubated for 48 hrs by sulforhodamine B assay relative to control; format: functional; details: OVCAR-3, 48 h, read-out: Activity
[14] = test system: COLO 205; assay: Growth inhibition of human COLO205 cells assessed as cell growth at 10 uM incubated for 48 hrs by sulforhodamine B assay relative to control; format: functional; details: COLO 205, 48 h, read-out: Activity
[15] = test system: Malme-3M; assay: Growth inhibition of human MALME-3M cells assessed as cell growth at 10 uM incubated for 48 hrs by sulforhodamine B assay relative to control; format: functional; details: read-out: Activity
[16] = test system: SK-MEL-28; assay: Growth inhibition of human SK-MEL-28 cells assessed as cell growth at 0.01 uM incubated for 48 hrs by sulforhodamine B assay relative to control; format: functional; details: SK-MEL-28, 48 h, read-out: Activity
[17] = test system: UACC-62; assay: Growth inhibition of human UACC62 cells assessed as cell growth at 10 uM incubated for 48 hrs by sulforhodamine B assay relative to control; format: functional; details: UACC-62, 48 h, read-out: Activity
[18] = test system: SN12C; assay: Growth inhibition of human SN12C cells assessed as cell growth at 10 uM incubated for 48 hrs by sulforhodamine B assay relative to control; format: functional; details: read-out: Activity
[19] = test system: SK-OV-3; assay: Growth inhibition of human SKOV3 cells assessed as cell growth at 10 uM incubated for 48 hrs by sulforhodamine B assay relative to control; format: functional; details: SK-OV-3, 48 h, read-out: Activity
[20] = test system: OVCAR-3; assay: Growth inhibition of human OVCAR3 cells assessed as cell growth at 10 uM incubated for 48 hrs by sulforhodamine B assay relative to control; format: functional; details: OVCAR-3, 48 h, read-out: Activity
[21] = test system: HCT-15; assay: Growth inhibition of human HCT15 cells assessed as cell growth at 10 uM incubated for 48 hrs by sulforhodamine B assay relative to control; format: functional; details: HCT-15, 48 h, read-out: Activity
[22] = test system: DU-145; assay: Growth inhibition of human DU145 cells assessed as cell growth at 10 uM incubated for 48 hrs by sulforhodamine B assay relative to control; format: functional; details: DU-145, 48 h, read-out: Activity
[23] = test system: U-251; assay: Growth inhibition of human U251 cells assessed as cell growth at 10 uM incubated for 48 hrs by sulforhodamine B assay relative to control; format: functional; details: U-251, 48 h, read-out: Activity
[24] = test system: NCI-H23; assay: Growth inhibition of human NCI-H23 cells assessed as cell growth at 10 uM incubated for 48 hrs by sulforhodamine B assay relative to control; format: functional; details: NCI-H23, 48 h, read-out: Activity
[25] = test system: K562; assay: Growth inhibition of human K562 cells assessed as cell growth at 10 uM incubated for 48 hrs by sulforhodamine B assay relative to control; format: functional; details: K562, 48 h, read-out: Activity
[26] = test system: Hs-578T; assay: Growth inhibition of human Hs578T cells assessed as cell growth at 10 uM incubated for 48 hrs by sulforhodamine B assay relative to control; format: functional; details: read-out: Activity
[27] = test system: IGROV-1; assay: Growth inhibition of human IGROV1 cells assessed as cell growth at 10 uM incubated for 48 hrs by sulforhodamine B assay relative to control; format: functional; details: IGROV-1, 48 h, read-out: Activity
[28] = test system: CAKI-1; assay: Growth inhibition of human Caki1 cells incubated for 48 hrs by sulforhodamine B assay; format: functional, cell-based; details: CAKI-1, 48 h
[29] = test system: MDA-MB-231; assay: Growth inhibition of human MDA-MB-231 cells assessed as cell growth at 10 uM incubated for 48 hrs by sulforhodamine B assay relative to control; format: functional; details: MDA-MB-231, 48 h, read-out: Activity
[30] = test system: RPMI-8226; assay: Growth inhibition of human RPMI8226 cells assessed as cell growth at 10 uM incubated for 48 hrs by sulforhodamine B assay relative to control; format: functional; details: RPMI-8226, 48 h, read-out: Activity
[31] = test system: NCI-H226; assay: Growth inhibition of human NCI-H226 cells incubated for 48 hrs by sulforhodamine B assay; format: functional, cell-based; details: NCI-H226, 48 h
[32] = read-out: LC50 (the source's name)
[33] = read-out: pLC50 (the source's name) (converted)

**Q.** Which results are given for `COc1cc(Cl)cc(-c2nn(-c3cccc(NC(=O)c4cccc(C(F)(F)F)c4)c3)cc2-c2ccncc2)c1`?
**A.** GI50 ([1]; read-out: GI50): > 100 µM; CC50 [1, 32]: > 100 µM; TGI ([1]; read-out: TGI): > 100 µM; GI50 ([1]; read-out: pGI50 (converted)): > 100 µM; CC50 [1, 33]: > 100 µM; TGI ([1]; read-out: pTGI (converted)): > 100 µM; growth at 10 µM [2]: 46.6%; growth at 10 µM [3]: 42%; growth at 10 µM [4]: 71.8%; growth at 100 µM [5]: 30%; growth at 10 µM [6]: 77%; growth at 100 µM [7]: 41%; GI50 ([8]; read-out: GI50): 4.59 µM; CC50 [8, 32]: > 100 µM; TGI ([8]; read-out: TGI): > 100 µM; GI50 ([8]; read-out: pGI50 (converted)): 4.68 µM; CC50 [8, 33]: > 100 µM; TGI ([8]; read-out: pTGI (converted)): > 100 µM; growth at 10 µM [9]: 71.6%; growth at 10 µM [10]: 77.3%; growth at 100 µM [11]: 50%; growth at 0.1 µM [12]: 92%; growth at 0.01 µM [13]: 105%; growth at 10 µM [14]: 68.5%; growth at 10 µM [15]: 92.4%; growth at 0.01 µM [16]: 105%; growth at 10 µM [17]: 74.5%; growth at 10 µM [18]: 65.8%; growth at 10 µM [19]: 81.6%; growth at 10 µM [20]: 52.3%; growth at 10 µM [21]: 33.2%; growth at 10 µM [22]: 83.8%; growth at 10 µM [23]: 49.2%; growth at 10 µM [24]: 55.6%; growth at 10 µM [25]: 26%; growth at 10 µM [26]: 62.2%; growth at 10 µM [27]: 80.7%; GI50 ([28]; read-out: GI50): 3.58 µM; CC50 [28, 32]: > 100 µM; TGI ([28]; read-out: TGI): > 100 µM; GI50 ([28]; read-out: pGI50 (converted)): 3.89 µM; CC50 [28, 33]: > 100 µM; TGI ([28]; read-out: pTGI (converted)): > 100 µM; growth at 10 µM [29]: 21.4%; growth at 10 µM [30]: 31.5%; GI50 ([31]; read-out: GI50): > 100 µM; LC50 ([31]; read-out: LC50): > 100 µM; TGI ([31]; read-out: TGI): > 100 µM; GI50 ([31]; read-out: pGI50 (converted)): > 100 µM; LC50 ([31]; read-out: pLC50 (converted)): > 100 µM; TGI ([31]; read-out: pTGI (converted)): > 100 µM

**Q.** What does the source list for `COc1cc(Cl)cc(-c2nn(-c3cccc(NC(=O)c4ccc(N5CCOCC5)c(C(F)(F)F)c4)c3)cc2-c2ccncc2)c1`?
**A.** GI50 ([1]; read-out: GI50): > 100 µM; CC50 [1, 32]: > 100 µM; TGI ([1]; read-out: TGI): > 100 µM; GI50 ([1]; read-out: pGI50 (converted)): > 100 µM; CC50 [1, 33]: > 100 µM; TGI ([1]; read-out: pTGI (converted)): > 100 µM; growth at 10 µM [2]: 46.1%; growth at 10 µM [3]: 42.1%; growth at 10 µM [4]: 67.9%; growth at 100 µM [5]: 25%; growth at 10 µM [6]: 69.2%; growth at 100 µM [7]: 25%; GI50 ([8]; read-out: GI50): 1.04 µM; CC50 [8, 32]: > 100 µM; TGI ([8]; read-out: TGI): > 100 µM; GI50 ([8]; read-out: pGI50 (converted)): 10.5 µM; CC50 [8, 33]: > 100 µM; TGI ([8]; read-out: pTGI (converted)): > 100 µM; growth at 10 µM [9]: 52.1%; growth at 10 µM [10]: 67.3%; growth at 100 µM [11]: 54%; growth at 0.1 µM [12]: 101%; growth at 0.01 µM [13]: 100%; growth at 10 µM [14]: 52.7%; growth at 10 µM [15]: 57.9%; growth at 0.01 µM [16]: 97%; growth at 10 µM [17]: 67.8%; growth at 10 µM [18]: 79.8%; growth at 10 µM [19]: 75.7%; growth at 10 µM [20]: 69.4%; growth at 10 µM [21]: 17.2%; growth at 10 µM [22]: 93.3%; growth at 10 µM [23]: 32.3%; growth at 10 µM [24]: 79%; growth at 10 µM [25]: 4.03%; growth at 10 µM [26]: 40.7%; growth at 10 µM [27]: 96.5%; GI50 ([28]; read-out: GI50): 4.4 µM; CC50 [28, 32]: > 100 µM; TGI ([28]; read-out: TGI): > 100 µM; GI50 ([28]; read-out: pGI50 (converted)): 4.37 µM; CC50 [28, 33]: > 100 µM; TGI ([28]; read-out: pTGI (converted)): > 100 µM; growth at 10 µM [29]: 11.4%; growth at 10 µM [30]: 25.2%; GI50 ([31]; read-out: GI50): 9.34 µM; LC50 ([31]; read-out: LC50): > 100 µM; TGI ([31]; read-out: TGI): > 100 µM; GI50 ([31]; read-out: pGI50 (converted)): 93.3 µM; LC50 ([31]; read-out: pLC50 (converted)): > 100 µM; TGI ([31]; read-out: pTGI (converted)): > 100 µM
